Values of other authors in patent US20060030591A1 (Wyeth, priority 2004, published 2006).

Legend:
[1] = tested on: tamoxifen-sensitive cells lines; conditions: other studies, qualitative
[2] = tested on: tamoxifen-resistent MCF-7 breast cancer xenografts; conditions: recent preclinical studies, qualitative
uterus = conditions: qualitative

Cc1c(-c2ccc(O)cc2)n(Cc2ccc(OCCN3CCCCC3)cc2)c2ccc(O)cc12.Cl [pipindoxifene, 2-(4-hydroxyphenyl)-3-methyl-1-[4-(2-piperidin-1-yl-ethoxy)-benzyl]-1H-indol-5-ol hydrochloride]
effectiveness in tamoxifen-sensitive cells lines [1]: show effectiveness | growth of tamoxifen-resistent MCF-7 breast cancer xenografts [2]: inhibited the growth | effect in the uterus (uterus; Greenberger, et al., Clin. Cancer Res. (2001)): antiestrogenic in the uterus | uterotropic activity (uterus; tissue selective estrogenic effects): little or no uterotropic activity
